The source made the active and inactive calls.
Key:
[1] = cytotoxicity in OVCAR8 ovarian cancer cells, dose response, PAX8 project, cell-based, plate reader, dry powder samples (AID 743197); type: functional; conditions: OVCAR-8
Paired box protein Pax-8 = Paired box protein Pax-8 (Homo sapiens, UniProt Q06710); test: inhibitors of PAX8-driven TPO luciferase reporter, dose response, RMG-I cells, cherry-pick (AID 687027); type: functional, cell-based;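 further: luciferase reporter driven by Pax8 target thyroperoxidase promoter measured by SteadyGlo luminescence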
[2] = NIH:OVCAR-3 ovarian cancer cell cytotoxicity, dose response, PAX8 inhibitor project, plate reader, dry powder samples (AID 743044); type: functional, cell-based
H4 = test: Luminescence Cell-Based Dose Response HTS to Identify Activators of 5'UTR Stem-Loop Driven Prion Protein mRNA Translation in H4 Neuroglioblastoma Cells. [Related pubchem assays: 1829 (Project Summary), 1814 (Primary HTS)]; type: functional; conditions: Homo sapiens
[3] = target: T1, Orexin/Hypocretin receptor type 1 (Homo sapiens, UniProt O43613); test: Homogeneous Time Resolved Fluorescence (HTRF)-based cell-based high throughput dose response assay for antagonists of the orexin 1 receptor (OX1R; HCRTR1). [Related pubchem assays (depositor defined):AID434989, AID435008, AID463079, AID485270, AID492963, AID492964, AID492965, AID493232, AID504717, AID504718]; type: functional
T1 sequence (O43613 whole entry): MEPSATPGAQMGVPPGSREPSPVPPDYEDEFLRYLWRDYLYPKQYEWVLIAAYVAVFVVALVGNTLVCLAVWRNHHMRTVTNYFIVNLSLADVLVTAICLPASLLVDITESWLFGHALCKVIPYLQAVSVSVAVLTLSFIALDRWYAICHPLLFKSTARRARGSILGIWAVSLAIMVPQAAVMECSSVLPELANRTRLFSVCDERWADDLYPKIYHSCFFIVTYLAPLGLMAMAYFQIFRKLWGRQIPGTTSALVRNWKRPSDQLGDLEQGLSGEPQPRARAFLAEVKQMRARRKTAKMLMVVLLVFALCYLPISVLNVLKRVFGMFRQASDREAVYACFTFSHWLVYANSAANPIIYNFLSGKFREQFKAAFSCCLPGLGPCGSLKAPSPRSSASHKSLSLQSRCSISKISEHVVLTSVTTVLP

[4] = target: T1, Orexin/Hypocretin receptor type 1; test: Fluorescence-based cell-based high throughput dose response assay for antagonists of the orexin 1 receptor (OX1R; HCRTR1). [Related pubchem assays (depositor defined):AID434989, AID435008, AID463079, AID485270, AID492963, AID492964, AID492965, AID493232, AID504717, AID504718]; type: functional
CHO-K1 = test: (§1) Counterscreen for antagonists of the orexin 1 receptor (OX1R; HCRTR1): Homogeneous time resolved fluorescence (HTRF)-based cell-based dose response assay to identify antagonists of the parental CHO-K1 cell line. [Related pubchem assays (depositor defined):AID434989, AID435008, AID463079, AID485270, AID492963, AID492964, AID492965, AID493232, AID504699, AID504701]; type: functional; conditions: Cricetulus griseus
Orexin receptor type 2 [5] = target: T2, Orexin receptor type 2 (Homo sapiens, UniProt O43614); test: Counterscreen assay for antagonists of the orexin 1 receptor (OX1R; HCRTR1): Homogeneous Time Resolved Fluorescence (HTRF)-based cell-based dose response assay for antagonists of the orexin 2 receptor (OX2R; HCRTR2), run by assay provider.; type: functional
T2 sequence (O43614 whole entry): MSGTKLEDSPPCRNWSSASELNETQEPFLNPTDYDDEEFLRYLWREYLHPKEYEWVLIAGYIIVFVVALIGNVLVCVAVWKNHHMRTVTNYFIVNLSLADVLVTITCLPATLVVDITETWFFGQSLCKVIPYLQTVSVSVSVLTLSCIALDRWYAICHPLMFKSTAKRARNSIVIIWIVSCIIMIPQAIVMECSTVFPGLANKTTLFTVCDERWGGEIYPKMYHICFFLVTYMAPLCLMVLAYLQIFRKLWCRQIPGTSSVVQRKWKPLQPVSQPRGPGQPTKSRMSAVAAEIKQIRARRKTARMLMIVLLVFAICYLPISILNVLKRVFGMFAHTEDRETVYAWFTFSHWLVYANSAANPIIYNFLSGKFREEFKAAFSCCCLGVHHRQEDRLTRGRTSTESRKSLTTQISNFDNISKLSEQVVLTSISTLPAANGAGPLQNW

Orexin receptor type 2 [6] = target: T2, Orexin receptor type 2; test: Counterscreen assay for antagonists of the orexin 1 receptor (OX1R; HCRTR1): Fluorescence-based cell-based dose response assay for antagonists of the orexin 2 receptor (OX2R; HCRTR2), run by assay provider.; type: functional
[7] = as §1, with “Fluorescence-based” for “Homogeneous time resolved fluorescence (HTRF)-based”, “cell-based high throughput” for “cell-based”, “CHO” for “CHO-K1”; type: functional
cells [8] = type: functional
[9] = target: T3, DNA repair protein RAD52 homolog (Homo sapiens, UniProt P43351); type: functional, biochemical
T3 sequence (P43351 whole entry): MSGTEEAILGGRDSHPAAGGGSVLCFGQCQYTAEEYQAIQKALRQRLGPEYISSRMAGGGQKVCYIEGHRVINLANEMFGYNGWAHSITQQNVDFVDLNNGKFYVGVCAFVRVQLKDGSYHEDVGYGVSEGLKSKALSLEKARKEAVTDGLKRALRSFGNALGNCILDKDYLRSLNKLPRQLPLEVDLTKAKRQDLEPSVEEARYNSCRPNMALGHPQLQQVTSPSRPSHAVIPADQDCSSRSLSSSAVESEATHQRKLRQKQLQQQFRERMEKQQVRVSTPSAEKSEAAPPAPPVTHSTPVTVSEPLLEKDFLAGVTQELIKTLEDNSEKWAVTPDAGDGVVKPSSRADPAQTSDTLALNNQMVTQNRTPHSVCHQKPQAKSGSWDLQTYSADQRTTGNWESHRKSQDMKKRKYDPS

[10] = target: T4, Nuclear receptor subfamily 0 group B member 1 (Homo sapiens, UniProt P51843); type: functional, cell-based;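 further: HEK293T cells transfected with SF-1 and DAX-1 plus StAR promoter luciferase reporter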
T4 sequence (P51843 whole entry): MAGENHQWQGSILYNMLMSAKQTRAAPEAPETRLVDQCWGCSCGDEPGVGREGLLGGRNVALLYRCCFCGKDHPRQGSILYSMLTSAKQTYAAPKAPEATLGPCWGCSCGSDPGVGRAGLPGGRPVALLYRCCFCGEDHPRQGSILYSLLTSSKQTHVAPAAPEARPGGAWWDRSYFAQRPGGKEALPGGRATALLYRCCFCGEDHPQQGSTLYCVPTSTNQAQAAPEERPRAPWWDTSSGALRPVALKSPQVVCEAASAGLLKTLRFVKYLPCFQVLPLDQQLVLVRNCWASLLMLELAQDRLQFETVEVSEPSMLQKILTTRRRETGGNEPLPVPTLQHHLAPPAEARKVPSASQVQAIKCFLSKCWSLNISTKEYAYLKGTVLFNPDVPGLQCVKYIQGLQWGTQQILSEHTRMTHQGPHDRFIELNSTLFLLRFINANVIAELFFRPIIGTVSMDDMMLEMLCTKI

cells [11] = type: functional, cell-based

Paired box protein Pax-8, sequence (Q06710 whole entry): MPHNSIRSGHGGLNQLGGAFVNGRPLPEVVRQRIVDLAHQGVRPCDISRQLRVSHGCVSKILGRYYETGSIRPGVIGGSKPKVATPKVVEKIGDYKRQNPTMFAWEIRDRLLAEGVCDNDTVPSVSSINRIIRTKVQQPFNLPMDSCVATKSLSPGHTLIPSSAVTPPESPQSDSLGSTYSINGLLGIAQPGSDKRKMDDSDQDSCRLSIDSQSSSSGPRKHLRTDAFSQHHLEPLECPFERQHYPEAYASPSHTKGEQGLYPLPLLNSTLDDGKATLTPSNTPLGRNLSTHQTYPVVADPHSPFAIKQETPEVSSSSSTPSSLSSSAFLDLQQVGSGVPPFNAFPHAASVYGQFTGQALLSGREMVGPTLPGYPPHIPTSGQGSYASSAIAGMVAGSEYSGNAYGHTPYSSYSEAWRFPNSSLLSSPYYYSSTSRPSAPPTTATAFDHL

Row | Compound | AC50 [1] | AC50 (Paired box protein Pax-8) | IC50 [3] | IC50 [4] | IC50 (CHO-K1) | IC50 (Orexin receptor type 2 [5]) | IC50 (Orexin receptor type 2 [6]) | IC50 [7] | further results
1 | N#Cc1cccc(-c2ccc3c(c2)[C@@H]2[C@@H](CCN2C(=O)C2CCCCC2)[C@@H](CO)N3)c1 | 61.9 µM (active) | 17.8 µM (active) |  |  |  |  |  |  | 
2 | C[C@@H]1CCCCO[C@H](CN(C)Cc2ccc(Cl)c(Cl)c2)[C@H](C)CN([C@@H](C)CO)C(=O)c2cc(NC(=O)Nc3ccc(C(F)(F)F)cc3)ccc2O1 | 51.1 µM (active) | 5.49 µM (active) |  |  |  |  |  |  | AC50 [2]: 20.1 µM (active)
3 | Nc1nc(-c2sc3nc4c(cc3c2N)CCCC4)nc(N2CCOCC2)n1 |  |  | 0.797 µM (active) | 5.52 µM (active) | > 66.2 µM (inactive) | > 50 µM (inactive) | > 88.8 µM (inactive) | > 49.8 µM (inactive) | EC50 (H4): > 120 µM (not active)
4 | CCOC(=O)c1c(C)nc2c3ccccc3ccn12 |  |  | 3.62 µM (active) | 32.9 µM (inactive) | > 66.3 µM (inactive) | 30 µM (inactive) | > 88.8 µM (inactive) | > 49.8 µM (inactive) | IC50 (cells [8]): 37.3 µM (active)
5 | CCOC(=O)c1c(C)n(-c2ccc(C)cc2)c2ccc(OCC(O)CN3CCN(C)CC3)cc12 (configuration not stated) |  |  |  |  |  |  |  |  | AC50 [9]: 6.54 µM (active)
6 | CNc1nnc(SCC(=O)c2cc(C)n(C3CC3)c2C)s1 |  |  |  |  |  |  |  |  | IC50 [10]: > 67.5 µM (inactive); IC50 (cells [11]): > 67.5 µM (inactive)

Reference: ChEMBL document CHEMBL1201862, “PubChem BioAssay data set” (2004)
